Experiment [1] has as its target Dual specificity mitogen-activated protein kinase kinase 6 (Homo sapiens) (UniProt P52564). The experiment is described as follows: MAP2K6 Invitrogen Lab (UK) kinase screen (BI). To be noted: Compound concentration 1.0 uM.
In experiment [2] the target is Histamine H4 receptor (Homo sapiens) (UniProt Q9H3N8). Particulars: Compound concentration 10.0 uM.
The target of experiment [3] is Mu-type opioid receptor (Homo sapiens) (UniProt P35372). The experiment is described as follows: MU/H Eurofins SafetyScreen44 (BI). Particulars: Compound concentration 10.0 uM.
In experiment [4] the target is B-cell lymphoma 6 protein (Homo sapiens, UniProt P41182). The experiment is described as follows: BCL6:BCOR ULight TR-FRET.
Experiment [5] addresses Histamine H3 receptor (Homo sapiens) (UniProt Q9Y5N1). Particulars: Compound concentration 10.0 uM.
The target in experiment [6] is 5-hydroxytryptamine receptor 1A (Homo sapiens) (UniProt P08908). The experiment is described as follows: 5HT1A/H Eurofins SafetyScreen44 (BI). Particulars: Compound concentration 10.0 uM.
In experiment [7] the target is Mitogen-activated protein kinase 8 (Homo sapiens) (UniProt P45983). The experiment is described as follows: MAPK8 Invitrogen Lab (UK) kinase screen (BI). To be noted: Compound concentration 1.0 uM.
The target in experiment [8] is Alpha-1B adrenergic receptor (Homo sapiens) (UniProt P35368). Particulars: Compound concentration 10.0 uM.
Experiment [9] deals with Fibroblast growth factor receptor 1 (Homo sapiens) (UniProt P11362). The experiment is described as follows: FGFR1 Invitrogen Lab (UK) kinase screen (BI). To be noted: Compound concentration 1.0 uM.
Experiment [10] addresses RAF proto-oncogene serine/threonine-protein kinase (Homo sapiens) (UniProt P04049). The experiment is described as follows: RAF1 Invitrogen Lab (UK) kinase screen (BI). Particulars: Compound concentration 1.0 uM.
The target in experiment [11] is Prostaglandin G/H synthase 2 (Homo sapiens) (UniProt P35354). The experiment is described as follows: COX-2 Eurofins SafetyScreen44 (BI). To be noted: Compound concentration 10.0 uM.
For experiment [12], the target named is MAP kinase-activated protein kinase 2 (Homo sapiens) (UniProt P49137). The experiment is described as follows: MAPKAPK2 Invitrogen Lab (UK) kinase screen (BI). Particulars: Compound concentration 1.0 uM.
The target of experiment [13] is Alpha-1A adrenergic receptor (Homo sapiens) (UniProt P35348). The experiment is described as follows: ALPHA1AH_ANTAG Eurofins SafetyScreen44 (BI). Particulars: filed as antagonist, Compound concentration 10.0 uM.
The target of experiment [14] is 5-hydroxytryptamine receptor 2A (Homo sapiens) (UniProt P28223). Particulars: Compound concentration 10.0 uM.
Experiment [15] concerns the target cAMP-dependent protein kinase catalytic subunit alpha (Homo sapiens) (UniProt P17612). The experiment is described as follows: PRKACA Invitrogen Lab (UK) kinase screen (BI). To be noted: Compound concentration 1.0 uM.
Experiment [16] addresses Ephrin type-A receptor 2 (Homo sapiens) (UniProt P29317). The experiment is described as follows: EPHA2 Invitrogen Lab (UK) kinase screen (BI). Particulars: Compound concentration 1.0 uM.
Experiment [17] concerns the target Serine/threonine-protein kinase PAK 4 (Homo sapiens) (UniProt O96013). The experiment is described as follows: PAK4 Invitrogen Lab (UK) kinase screen (BI). To be noted: Compound concentration 1.0 uM.
The target of experiment [18] is Platelet-derived growth factor receptor alpha (Homo sapiens) (UniProt P16234). The experiment is described as follows: PDGFRA Invitrogen Lab (UK) kinase screen (BI). Particulars: Compound concentration 1.0 uM.
The target in experiment [19] is Dual specificity protein kinase CLK1 (Homo sapiens) (UniProt P49759). The experiment is described as follows: CLK1 Invitrogen Lab (UK) kinase screen (BI). Particulars: Compound concentration 1.0 uM.

Results on one compound are retold here after ChEMBL document CHEMBL5303764, “Data for DCP probe BI-3812” (2023).

Activity calls are given as the source filed them. The calls are words filed in the database; no cut-off is given here.

Sequence of Histamine H3 receptor (Homo sapiens) (Q9Y5N1 whole entry): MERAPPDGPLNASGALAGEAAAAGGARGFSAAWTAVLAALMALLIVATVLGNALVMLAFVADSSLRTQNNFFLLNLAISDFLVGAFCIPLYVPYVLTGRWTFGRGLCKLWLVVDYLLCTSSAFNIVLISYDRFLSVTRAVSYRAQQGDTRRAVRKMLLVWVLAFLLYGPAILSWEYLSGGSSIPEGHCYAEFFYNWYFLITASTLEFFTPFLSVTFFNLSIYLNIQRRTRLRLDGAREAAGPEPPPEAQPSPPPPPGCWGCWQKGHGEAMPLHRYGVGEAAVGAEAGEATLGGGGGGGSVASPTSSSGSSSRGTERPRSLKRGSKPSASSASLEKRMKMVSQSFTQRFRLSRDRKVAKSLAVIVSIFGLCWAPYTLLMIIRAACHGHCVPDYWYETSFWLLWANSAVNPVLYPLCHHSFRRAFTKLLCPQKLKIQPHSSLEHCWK
Sequence of Histamine H4 receptor (Homo sapiens) (Q9H3N8 whole entry): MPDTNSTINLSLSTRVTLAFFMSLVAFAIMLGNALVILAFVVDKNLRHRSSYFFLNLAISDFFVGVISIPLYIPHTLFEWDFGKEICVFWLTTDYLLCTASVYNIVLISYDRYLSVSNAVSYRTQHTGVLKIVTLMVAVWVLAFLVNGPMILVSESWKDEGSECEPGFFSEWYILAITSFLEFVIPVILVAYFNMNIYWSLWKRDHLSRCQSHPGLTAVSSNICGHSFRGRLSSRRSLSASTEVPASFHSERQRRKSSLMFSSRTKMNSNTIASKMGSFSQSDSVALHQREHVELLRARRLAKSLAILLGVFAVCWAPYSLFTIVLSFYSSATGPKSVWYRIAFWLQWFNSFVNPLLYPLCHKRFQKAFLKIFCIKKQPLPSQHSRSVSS
Sequence of Alpha-1B adrenergic receptor (Homo sapiens) (P35368 whole entry): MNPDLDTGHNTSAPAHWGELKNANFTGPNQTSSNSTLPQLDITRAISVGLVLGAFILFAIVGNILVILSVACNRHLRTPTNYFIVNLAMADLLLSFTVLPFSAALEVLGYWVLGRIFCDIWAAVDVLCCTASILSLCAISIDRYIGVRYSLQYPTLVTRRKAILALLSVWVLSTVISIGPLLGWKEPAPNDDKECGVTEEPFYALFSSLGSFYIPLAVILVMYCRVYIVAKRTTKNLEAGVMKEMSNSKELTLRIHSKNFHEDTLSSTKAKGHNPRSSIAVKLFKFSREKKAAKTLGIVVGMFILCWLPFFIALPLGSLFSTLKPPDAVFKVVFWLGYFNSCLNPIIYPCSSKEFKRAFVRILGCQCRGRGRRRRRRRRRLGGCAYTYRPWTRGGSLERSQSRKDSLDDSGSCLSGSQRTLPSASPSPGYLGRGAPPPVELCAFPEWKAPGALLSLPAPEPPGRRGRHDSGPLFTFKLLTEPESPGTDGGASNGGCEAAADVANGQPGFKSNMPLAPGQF
Sequence of 5-hydroxytryptamine receptor 2A (Homo sapiens) (P28223 whole entry): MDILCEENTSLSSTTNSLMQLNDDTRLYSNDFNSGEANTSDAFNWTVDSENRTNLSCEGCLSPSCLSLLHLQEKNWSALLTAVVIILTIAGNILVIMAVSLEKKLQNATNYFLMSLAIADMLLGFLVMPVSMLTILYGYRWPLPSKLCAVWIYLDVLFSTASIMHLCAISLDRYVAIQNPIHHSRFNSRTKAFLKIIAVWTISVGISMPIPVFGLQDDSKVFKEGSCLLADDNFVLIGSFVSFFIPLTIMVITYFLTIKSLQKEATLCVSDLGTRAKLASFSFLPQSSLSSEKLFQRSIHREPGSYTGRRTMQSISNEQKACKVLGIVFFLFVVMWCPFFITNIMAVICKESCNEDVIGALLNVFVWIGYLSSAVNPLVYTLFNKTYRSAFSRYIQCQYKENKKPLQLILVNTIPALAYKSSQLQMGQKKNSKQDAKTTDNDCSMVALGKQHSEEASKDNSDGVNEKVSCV
Sequence of 5-hydroxytryptamine receptor 1A (Homo sapiens) (P08908 whole entry): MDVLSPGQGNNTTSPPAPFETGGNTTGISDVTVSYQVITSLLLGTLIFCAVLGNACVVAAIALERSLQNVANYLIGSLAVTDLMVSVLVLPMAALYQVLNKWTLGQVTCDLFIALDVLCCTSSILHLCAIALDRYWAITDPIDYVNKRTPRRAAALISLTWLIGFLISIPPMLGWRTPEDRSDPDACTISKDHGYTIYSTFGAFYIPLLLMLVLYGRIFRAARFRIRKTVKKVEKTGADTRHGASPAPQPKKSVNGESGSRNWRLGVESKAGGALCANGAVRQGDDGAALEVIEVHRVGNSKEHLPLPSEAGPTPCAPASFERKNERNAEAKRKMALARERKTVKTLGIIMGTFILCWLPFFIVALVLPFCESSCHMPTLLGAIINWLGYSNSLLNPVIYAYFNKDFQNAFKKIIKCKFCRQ
Sequence of Dual specificity protein kinase CLK1 (Homo sapiens) (P49759 whole entry, looked up): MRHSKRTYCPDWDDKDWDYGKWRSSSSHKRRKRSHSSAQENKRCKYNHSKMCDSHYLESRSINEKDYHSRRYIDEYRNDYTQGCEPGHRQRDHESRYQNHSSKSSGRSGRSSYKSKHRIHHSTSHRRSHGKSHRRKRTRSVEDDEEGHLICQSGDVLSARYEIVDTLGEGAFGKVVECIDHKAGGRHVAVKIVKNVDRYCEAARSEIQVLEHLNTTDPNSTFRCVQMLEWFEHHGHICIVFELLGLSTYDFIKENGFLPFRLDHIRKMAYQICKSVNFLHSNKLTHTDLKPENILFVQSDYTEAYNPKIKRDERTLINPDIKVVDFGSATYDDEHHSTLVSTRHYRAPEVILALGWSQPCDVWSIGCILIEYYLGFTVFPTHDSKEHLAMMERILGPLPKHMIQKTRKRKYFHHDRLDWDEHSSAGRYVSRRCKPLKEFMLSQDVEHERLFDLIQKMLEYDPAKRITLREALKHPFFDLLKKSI
Sequence of Prostaglandin G/H synthase 2 (Homo sapiens) (P35354 whole entry): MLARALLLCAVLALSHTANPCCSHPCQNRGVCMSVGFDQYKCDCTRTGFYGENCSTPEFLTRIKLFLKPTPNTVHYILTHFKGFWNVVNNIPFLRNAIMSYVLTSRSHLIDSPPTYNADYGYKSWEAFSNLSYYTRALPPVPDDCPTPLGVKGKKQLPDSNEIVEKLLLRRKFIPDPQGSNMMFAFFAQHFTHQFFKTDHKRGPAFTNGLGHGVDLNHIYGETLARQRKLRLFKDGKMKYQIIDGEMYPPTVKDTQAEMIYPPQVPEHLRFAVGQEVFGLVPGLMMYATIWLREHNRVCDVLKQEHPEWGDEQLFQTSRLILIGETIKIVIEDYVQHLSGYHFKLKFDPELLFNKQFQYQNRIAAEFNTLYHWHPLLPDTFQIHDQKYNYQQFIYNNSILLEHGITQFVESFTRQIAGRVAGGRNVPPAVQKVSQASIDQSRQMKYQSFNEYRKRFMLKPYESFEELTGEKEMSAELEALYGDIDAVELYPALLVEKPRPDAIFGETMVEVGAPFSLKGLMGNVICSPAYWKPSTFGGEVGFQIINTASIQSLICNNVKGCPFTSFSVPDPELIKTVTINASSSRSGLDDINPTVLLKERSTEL
Sequence of Dual specificity mitogen-activated protein kinase kinase 6 (Homo sapiens) (P52564 whole entry): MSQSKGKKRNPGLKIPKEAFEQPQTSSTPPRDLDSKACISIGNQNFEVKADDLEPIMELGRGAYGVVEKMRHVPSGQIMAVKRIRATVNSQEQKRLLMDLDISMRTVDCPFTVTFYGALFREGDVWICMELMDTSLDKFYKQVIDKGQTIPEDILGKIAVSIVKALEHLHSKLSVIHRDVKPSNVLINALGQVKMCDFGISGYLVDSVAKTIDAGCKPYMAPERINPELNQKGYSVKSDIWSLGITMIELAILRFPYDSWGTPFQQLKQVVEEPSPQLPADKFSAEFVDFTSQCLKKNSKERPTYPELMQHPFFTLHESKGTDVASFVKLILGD
Sequence of Fibroblast growth factor receptor 1 (Homo sapiens) (P11362 22-822 limits assumed): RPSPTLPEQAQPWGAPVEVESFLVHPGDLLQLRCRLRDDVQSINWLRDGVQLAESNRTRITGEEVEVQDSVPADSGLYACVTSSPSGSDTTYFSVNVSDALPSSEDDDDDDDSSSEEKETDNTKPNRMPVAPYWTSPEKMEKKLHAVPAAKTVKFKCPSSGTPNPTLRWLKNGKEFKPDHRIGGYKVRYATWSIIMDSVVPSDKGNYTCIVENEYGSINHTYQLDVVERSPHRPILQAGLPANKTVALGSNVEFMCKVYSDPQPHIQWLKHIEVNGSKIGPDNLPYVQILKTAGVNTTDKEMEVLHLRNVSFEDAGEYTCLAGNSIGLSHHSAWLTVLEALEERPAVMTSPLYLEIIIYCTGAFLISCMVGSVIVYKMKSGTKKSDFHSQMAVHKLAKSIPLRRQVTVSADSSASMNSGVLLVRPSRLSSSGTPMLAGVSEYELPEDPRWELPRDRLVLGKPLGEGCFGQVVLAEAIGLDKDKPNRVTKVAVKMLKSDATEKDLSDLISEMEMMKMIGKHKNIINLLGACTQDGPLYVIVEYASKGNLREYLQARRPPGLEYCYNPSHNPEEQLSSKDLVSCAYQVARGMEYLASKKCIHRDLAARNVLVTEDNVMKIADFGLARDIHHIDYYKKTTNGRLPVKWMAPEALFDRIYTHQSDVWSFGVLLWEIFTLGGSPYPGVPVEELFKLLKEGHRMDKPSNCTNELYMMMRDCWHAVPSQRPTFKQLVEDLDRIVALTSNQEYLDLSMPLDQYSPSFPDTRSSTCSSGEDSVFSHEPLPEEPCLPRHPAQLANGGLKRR
Sequence of MAP kinase-activated protein kinase 2 (Homo sapiens) (P49137 whole entry, looked up): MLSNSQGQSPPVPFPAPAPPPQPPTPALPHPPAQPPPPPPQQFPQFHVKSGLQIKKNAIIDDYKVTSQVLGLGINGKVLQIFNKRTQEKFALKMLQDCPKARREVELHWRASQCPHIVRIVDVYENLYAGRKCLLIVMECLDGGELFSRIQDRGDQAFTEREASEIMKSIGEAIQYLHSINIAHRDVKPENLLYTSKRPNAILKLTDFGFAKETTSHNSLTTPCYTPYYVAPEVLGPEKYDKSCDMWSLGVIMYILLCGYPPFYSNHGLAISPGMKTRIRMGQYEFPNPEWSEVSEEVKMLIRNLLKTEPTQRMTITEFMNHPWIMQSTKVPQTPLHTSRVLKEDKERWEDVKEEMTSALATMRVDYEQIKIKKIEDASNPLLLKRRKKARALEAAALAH

In general, inhibition refers to the drop in the measured response relative to a control, in per cent. Usually IC50 stands for the midpoint of a concentration-inhibition curve. For `CNC(=O)COc1cc2cc(Nc3nc(N4CCC(C(=O)N(C)C)CC4)ncc3Cl)cc(OC)c2n(C)c1=O`, the residual activity in experiment [1] was 112%; in experiment [3] it was 95%; in experiment [6], 89%; in experiment [7] it was 82%; in experiment [9] it was 86%; in experiment [10] it was 79%. The residual activity was 74% in [11]; 91% in [12]; 99% in experiment [13]; 99% in experiment [15]; 99% in [16]; 82% in [17]. For the same compound, the residual activity in experiment [18] and in experiment [19] was 88% each time. The inhibition in [2] is -1.33%; in experiment [5] it was 20.9%; in experiment [8], 9.69%; in [14] it was 7.86%. The IC50 in experiment [4] was ≤ 3 nM (active).
